The target in experiment [1] is Cyclin-dependent kinase 9 (Homo sapiens) (UniProt P50750). The experiment in a line: Inhibition of human recombinant CDK9 at 40 nM related to control ULK1.
Experiment [2] addresses T1, Serine/threonine-protein kinase DCLK2 (Homo sapiens) (UniProt Q8N568).
T1 sequence (whole entry): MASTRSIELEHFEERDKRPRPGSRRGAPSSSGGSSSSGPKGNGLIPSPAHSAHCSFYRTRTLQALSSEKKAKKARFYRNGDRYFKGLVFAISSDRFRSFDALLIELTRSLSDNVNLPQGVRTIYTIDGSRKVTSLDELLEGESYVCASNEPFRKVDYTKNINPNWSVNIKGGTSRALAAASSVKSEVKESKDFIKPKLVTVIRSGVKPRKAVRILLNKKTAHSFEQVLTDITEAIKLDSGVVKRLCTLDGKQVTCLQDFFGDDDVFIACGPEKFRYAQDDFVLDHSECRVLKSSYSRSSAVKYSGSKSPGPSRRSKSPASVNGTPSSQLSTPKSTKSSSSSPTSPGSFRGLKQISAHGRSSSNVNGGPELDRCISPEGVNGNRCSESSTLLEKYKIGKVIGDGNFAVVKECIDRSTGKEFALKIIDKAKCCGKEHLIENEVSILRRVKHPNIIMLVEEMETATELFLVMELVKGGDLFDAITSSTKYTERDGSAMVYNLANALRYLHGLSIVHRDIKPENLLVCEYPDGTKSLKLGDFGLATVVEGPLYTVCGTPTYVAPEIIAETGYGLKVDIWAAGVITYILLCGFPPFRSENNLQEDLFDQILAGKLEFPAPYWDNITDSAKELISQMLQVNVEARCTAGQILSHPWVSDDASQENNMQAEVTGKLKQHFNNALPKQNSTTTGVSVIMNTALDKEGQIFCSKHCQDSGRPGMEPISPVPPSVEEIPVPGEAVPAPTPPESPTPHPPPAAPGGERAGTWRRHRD
The experiment in a line: Inhibition of human recombinant DCAMKL2 at 40 nM in presence of ATP by radiometric assay relative to control.

Experiment [3] concerns the target cAMP-dependent protein kinase catalytic subunit alpha (Homo sapiens) (UniProt P17612). The experiment in a line: Inhibition of human recombinant PKACalpha at 40 nM in presence of ATP by radiometric assay relative to control.
For experiment [4], the target named is T2, Serine/threonine-protein kinase ULK2 (Homo sapiens) (UniProt Q8IYT8).
T2 sequence (whole entry): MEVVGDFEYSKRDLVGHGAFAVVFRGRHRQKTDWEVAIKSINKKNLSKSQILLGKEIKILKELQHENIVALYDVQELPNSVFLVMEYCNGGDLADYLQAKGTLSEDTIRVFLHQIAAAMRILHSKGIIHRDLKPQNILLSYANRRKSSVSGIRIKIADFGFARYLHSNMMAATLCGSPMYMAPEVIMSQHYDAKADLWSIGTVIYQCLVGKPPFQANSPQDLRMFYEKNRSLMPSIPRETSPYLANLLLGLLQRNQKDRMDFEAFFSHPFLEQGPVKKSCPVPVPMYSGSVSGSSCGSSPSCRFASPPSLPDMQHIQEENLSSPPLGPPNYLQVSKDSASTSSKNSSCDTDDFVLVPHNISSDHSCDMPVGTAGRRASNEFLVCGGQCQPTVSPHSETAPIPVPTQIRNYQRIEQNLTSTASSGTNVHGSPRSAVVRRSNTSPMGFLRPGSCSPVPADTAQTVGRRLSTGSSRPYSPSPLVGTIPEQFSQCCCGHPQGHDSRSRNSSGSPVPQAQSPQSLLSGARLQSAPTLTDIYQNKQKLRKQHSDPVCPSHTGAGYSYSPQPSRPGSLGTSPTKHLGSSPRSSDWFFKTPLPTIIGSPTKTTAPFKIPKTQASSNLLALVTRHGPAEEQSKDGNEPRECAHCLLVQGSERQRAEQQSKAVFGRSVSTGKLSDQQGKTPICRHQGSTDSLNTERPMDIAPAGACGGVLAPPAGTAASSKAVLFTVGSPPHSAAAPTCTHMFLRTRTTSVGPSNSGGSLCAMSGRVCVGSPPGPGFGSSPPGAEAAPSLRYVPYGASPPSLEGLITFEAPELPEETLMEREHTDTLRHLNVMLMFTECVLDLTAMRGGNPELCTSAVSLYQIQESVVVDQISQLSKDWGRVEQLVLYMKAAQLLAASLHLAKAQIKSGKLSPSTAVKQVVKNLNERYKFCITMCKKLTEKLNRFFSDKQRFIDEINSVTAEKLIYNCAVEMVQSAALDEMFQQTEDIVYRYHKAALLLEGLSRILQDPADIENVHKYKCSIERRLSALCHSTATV
The experiment in a line: Inhibition of human recombinant ULK2 at 40 nM in presence of ATP by radiometric assay relative to control.

In experiment [5] the target is T3, Ephrin type-A receptor 8 (Homo sapiens) (UniProt P29322).
T3 sequence (whole entry): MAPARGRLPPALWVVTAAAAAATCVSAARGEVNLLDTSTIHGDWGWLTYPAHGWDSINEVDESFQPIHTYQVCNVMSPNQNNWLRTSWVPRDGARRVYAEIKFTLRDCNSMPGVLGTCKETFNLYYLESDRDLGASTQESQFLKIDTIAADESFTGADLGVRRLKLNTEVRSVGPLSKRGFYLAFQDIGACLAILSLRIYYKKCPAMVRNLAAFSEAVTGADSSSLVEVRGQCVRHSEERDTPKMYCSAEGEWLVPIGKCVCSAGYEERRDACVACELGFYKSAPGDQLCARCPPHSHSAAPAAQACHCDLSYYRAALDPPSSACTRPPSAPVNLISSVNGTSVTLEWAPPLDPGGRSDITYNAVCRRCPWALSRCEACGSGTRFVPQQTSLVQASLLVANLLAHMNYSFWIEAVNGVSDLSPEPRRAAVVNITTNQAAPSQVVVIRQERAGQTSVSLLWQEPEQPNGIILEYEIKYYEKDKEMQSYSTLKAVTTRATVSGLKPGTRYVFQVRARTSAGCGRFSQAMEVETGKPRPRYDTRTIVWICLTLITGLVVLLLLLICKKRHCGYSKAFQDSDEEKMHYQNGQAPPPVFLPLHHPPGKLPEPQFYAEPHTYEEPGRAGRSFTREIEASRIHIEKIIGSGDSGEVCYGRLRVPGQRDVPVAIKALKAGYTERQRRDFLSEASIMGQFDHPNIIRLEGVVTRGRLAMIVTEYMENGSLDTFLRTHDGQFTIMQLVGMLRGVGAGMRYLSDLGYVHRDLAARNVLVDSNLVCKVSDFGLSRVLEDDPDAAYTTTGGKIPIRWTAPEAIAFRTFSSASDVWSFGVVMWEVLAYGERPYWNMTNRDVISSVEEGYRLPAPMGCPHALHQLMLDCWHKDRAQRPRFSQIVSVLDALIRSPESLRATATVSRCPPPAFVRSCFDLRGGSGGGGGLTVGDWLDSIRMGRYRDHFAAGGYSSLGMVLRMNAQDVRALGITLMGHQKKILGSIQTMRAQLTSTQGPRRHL
As to the kind of experiment: Inhibition of human recombinant EphA8 at 500 nM in presence of ATP by radiometric assay relative to control.

Each structure is given as a SMILES string.

Cyclin-dependent kinase 9 (Homo sapiens), sequence (P50750 whole entry): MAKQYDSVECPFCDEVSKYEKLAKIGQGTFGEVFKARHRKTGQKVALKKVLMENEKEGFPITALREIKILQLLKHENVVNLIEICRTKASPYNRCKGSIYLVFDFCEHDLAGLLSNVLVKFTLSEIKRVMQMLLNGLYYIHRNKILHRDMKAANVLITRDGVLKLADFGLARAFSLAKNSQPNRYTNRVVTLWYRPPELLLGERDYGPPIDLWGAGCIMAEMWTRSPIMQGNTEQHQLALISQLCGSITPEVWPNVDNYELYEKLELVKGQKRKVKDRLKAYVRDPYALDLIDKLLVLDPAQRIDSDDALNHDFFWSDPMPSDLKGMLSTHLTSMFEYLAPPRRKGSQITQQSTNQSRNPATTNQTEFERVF

For `O=C(N[C@@H](C1CC1)C(F)(F)F)c1cc(-c2cnn3cc(-c4ccc(F)cc4)cnc23)cs1`, the fold change (FC) in experiment [1] was 0. Besides, the inhibition – broadly, the change of the read-out against control, counted positive when it falls – was 0% in experiment [2], 0% in experiment [3] and 46% in experiment [4].

With `CNC(=O)c1ccccc1Oc1nc(Nc2cc(OC)c(OC)c(OC)c2)ncc1Br`, the inhibition in experiment [5] was 2%.
